Key:
[1] = Isomerization without enzyme (Example 3), glucose; settings: remark (1): initial pH 8.0-8.53; for Isomerization ratio Glucose NaOH: blank 32.3%; for Isomerization ratio Glucose Electrolytic water: blank 2.1-3.1%
Description: 200 μl of the 14% or 28% glucose solution and 200 μl of the organogermanium compound solution (pH 8.00 or 8.53) were placed in a small test tube. Also, 200 μl of the 14% or 28% glucose solution and 200 μl of the weakly alkaline electrolytic water were placed in a small test tube. Each test tube was thoroughly shaken and then placed in a water bath of 80° C. to give rise to a reaction. […] Thereafter, the mixture was diluted 100-fold with deionized water to determine the amount of formed fructose and the amount of residual glucose by high-performance liquid chromatography using 7A (a column) manufactured by Shimadzu Corp. […]

[2] = Isomerization without enzyme (Example 3), ribose; settings: remark (2): reaction time 6 h, initial pH 10.0-10.6; for Isomerization ratio Ribose NaOH: blank 3.9-19.5%; for Isomerization ratio Ribose Electrolytic water: blank 0.4-1.2%
[3] = Isomerization without enzyme (Example 3), arabinose; settings: remark (2):, initial pH 10.0-10.6; for Isomerization ratio Arabinose NaOH: blank 3.9-19.5%; for Isomerization ratio Arabinose Electrolytic water: blank 0.4-1.2%
[4] = Isomerization without enzyme (Example 3), xylose; settings: remark (2): reaction time 6 h, initial pH 10.0-10.6; for Isomerization ratio Xylose NaOH: blank 3.9-19.5%; for Isomerization ratio Xylose Electrolytic water: blank 0.4-1.2%
Description: [The procedure below names another target; the source says it served here with some conditions changed.] (§1) 200 μl of the 14% or 28% glucose solution and 200 μl of the organogermanium compound solution (pH 8.00 or 8.53) were placed in a small test tube. Also, 200 μl of the 14% or 28% glucose solution and 200 μl of the weakly alkaline electrolytic water were placed in a small test tube. Each test tube was thoroughly shaken and then placed in a water bath of 80° C. to give rise to a reaction. 1-3 hours later, 50 μl of the reaction mixture was added to 50 μl of 0.5N HClO4 to terminate the reaction. Thereafter, the mixture was diluted 100-fold with deionized water to determine the amount of formed fructose and the amount of residual glucose by high-performance liquid chromatography using 7A (a column) manufactured by Shimadzu Corp.
Other compounds represented by formula (I) were subjected to 3-hour isomerization in the same manner as in Example 2.

[5] = Isomerization without enzyme (Example 3), maltose; settings: remark (3): reaction time 6 h, initial pH 10.0-11.0; for Isomerization ratio Maltose NaOH: blank 34.0-38.6%; for Isomerization ratio Maltose Electrolytic water: blank 0-0.4%
[6] = Isomerization without enzyme (Example 3), lactose; settings: remark (3): reaction time 6 h, initial pH 10.0-11.0; for Isomerization ratio Lactose NaOH: blank 34.0-38.6%; for Isomerization ratio Lactose Electrolytic water: blank 0-0.4%
[7] = Isomerization without enzyme (Example 3), mannose; settings: remark (2): reaction time 6 h, initial pH 10.0-10.6; for Isomerization ratio Mannose NaOH: blank 3.9-19.5%; for Isomerization ratio Mannose Electrolytic water: blank 0.4-1.2%
glucose isomerase = assay: Enzymatic isomerization of glucose into fructose in presence of organogermanium compound (Example 1); assay type: biochemical, Streptomyces griseofuscus S-41; settings: 60° C., pH 8.0, substrate solution 40% glucose and 1.2M organogermanium compound, blank 50%
Description: A solution containing 40% glucose and 1.2M organogermanium compound was prepared according to the following procedure. 0.8 g of anhydrous glucose was dissolved in 0.8 ml of deionized water. To the solution was added, in small portions, 0.407 g of the organogermanium compound (1) as an isomerization accelerator of the present invention [a compound represented by formula (II) wherein n=1, R1 =R2 =R3 and X1 =OH] while the pH of the solution was maintained at very weak alkalinity, to completely dissolve the compound in the solution. Thereto was added 4.9 mg of magnesium sulfate, and the pH of the resulting mixture was adjusted to 8.0. Then, deionized water was added to make the total volume 2.0 ml, whereby a substrate solution was prepared.
Two other substrate solutions containing the organogermanium compounds (18) [a compound represented by formula (II) wherein n=1, R1 =R2 =H, R3 =NH2 and X1 =OH] and (23) [a compound represented by formula (II) wherein n=1, R1 =H, R2 =C6 H5, R3 =NH2 and X1 =OH], respectively, were prepared in the same manner as above except that the organogermanium compounds (18) and (23) were used in amounts of 0.443 g and 0.638 g, respectively (these amounts corresponded to 1.2M of germanium).
An isomerization enzyme (glucose isomerase) extracted from the cells of Streptomyces griseofuscus S-41 was purified according to a known method using an ion exchange column, a gel filtration column or the like, until a single band was obtained electrophoretically. The resulting purified enzyme was used as a standard enzyme.
In a small test tube were placed 0.7 ml of the above substrate solution, 0.1 ml of a 200 mM MOPS buffer solution (pH 8.0) and 0.2 ml of a solution containing the above-prepared standard enzyme (5.69 mg/ml). […] The amount of formed fructose in the microvial was determined by high-performance liquid chromatography using a column [LC7A, SCR-101 (N) manufactured by Shimadzu Corp.] to examine the change with time, of ratio of isomerization of glucose into fructose.

[8] = Isomerization of glucose without enzyme, weakly alkaline electrolytic water or NaOH (Example 2)
Description: Water was passed through an apparatus for electrolysis [e.g. Microcluster (trade name) manufactured by Asahi Glass Co., Ltd.]. The alkaline portion of the resulting electrolytic water was taken to use as a weakly alkaline electrolytic water.
14 g or 28 g of anhydrous glucose was dissolved in about 80 ml of the weakly alkaline electrolytic water prepared above. The same electrolytic water was further added to make the total volume 100 ml, whereby a 14% glucose solution and a 28% glucose solution were prepared. The 14% glucose solution had pH 9.1 and the 28% glucose solution had pH 8.61, right after the preparation.
1.847 g of the organogermanium compound (18) was weighed and added to about 2 ml of deionized water. The mixture was made weakly alkaline (pH 8.00 or 8.53) with a small amount of sodium hydroxide. The same deionized water was further added to make the total volume of 3 ml. The final concentration of the compound (18) in the solution was 1.67M.
as §1

Structure (SMILES): C[CH](CC(=O)O)[Ge](=[O])[O][Ge](=[O])[CH](C)CC(=O)O (centres unmarked) [Compound 2]
- Isomerization ratio Glucose NaOH [1]: 97.9%
- Isomerization ratio Glucose Electrolytic water [1]: 95.8%
- Isomerization ratio Ribose NaOH [2]: 41.8%
- Isomerization ratio Ribose Electrolytic water [2]: 12.8%
- Isomerization ratio Arabinose NaOH [3]: 20.3%
- Isomerization ratio Arabinose Electrolytic water [3]: 10.1%
- Isomerization ratio Xylose NaOH [4]: 20.3%
- Isomerization ratio Xylose Electrolytic water [4]: 7.2%
- Isomerization ratio Maltose NaOH [5]: 67.4%
- Isomerization ratio Maltose Electrolytic water [5]: 44.4%
- Isomerization ratio Lactose NaOH [6]: 68.3%
- Isomerization ratio Lactose Electrolytic water [6]: 43.4%
- Isomerization ratio Mannose NaOH [7]: 22.6%
- Isomerization ratio Mannose Electrolytic water [7]: 11.4%

Structure (SMILES): NC(C(=O)O)[CH](c1ccccc1)[Ge](=[O])[O][Ge](=[O])[CH](c1ccccc1)C(N)C(=O)O (centres unmarked) [Compound 23]
- isomerization ratio in equilibrium (glucose isomerase): 99%

Structure (SMILES): C[C](C)(CC(=O)O)[Ge](=[O])[O][Ge](=[O])[C](C)(C)CC(=O)O [Compound 5]
- Isomerization ratio Glucose NaOH [1]: 93.4%
- Isomerization ratio Glucose Electrolytic water [1]: 75.3%
- Isomerization ratio Ribose NaOH [2]: 37.6%
- Isomerization ratio Ribose Electrolytic water [2]: 8.6%
- Isomerization ratio Arabinose NaOH [3]: 17.8%
- Isomerization ratio Arabinose Electrolytic water [3]: 3.4%
- Isomerization ratio Xylose NaOH [4]: 20.3%
- Isomerization ratio Xylose Electrolytic water [4]: 6.1%
- Isomerization ratio Maltose NaOH [5]: 69.4%
- Isomerization ratio Maltose Electrolytic water [5]: 38.4%
- Isomerization ratio Lactose NaOH [6]: 68.8%
- Isomerization ratio Lactose Electrolytic water [6]: 17.2%
- Isomerization ratio Mannose NaOH [7]: 20.5%
- Isomerization ratio Mannose Electrolytic water [7]: 9.7%

Structure (SMILES): CC([CH2][Ge](=[O])[O][Ge](=[O])[CH2]C(C)C(=O)O)C(=O)O (centres unmarked) [Compound 3]
- Isomerization ratio Glucose NaOH [1]: 96.3%
- Isomerization ratio Glucose Electrolytic water [1]: 86.2%
- Isomerization ratio Ribose NaOH [2]: 30.0%
- Isomerization ratio Ribose Electrolytic water [2]: 17.4%
- Isomerization ratio Arabinose NaOH [3]: 18.5%
- Isomerization ratio Arabinose Electrolytic water [3]: 10.2%
- Isomerization ratio Xylose NaOH [4]: 24.5%
- Isomerization ratio Xylose Electrolytic water [4]: 7.6%
- Isomerization ratio Maltose NaOH [5]: 53.7%
- Isomerization ratio Maltose Electrolytic water [5]: 43.7%
- Isomerization ratio Lactose NaOH [6]: 74.1%
- Isomerization ratio Lactose Electrolytic water [6]: 28.9%
- Isomerization ratio Mannose NaOH [7]: 21.3%
- Isomerization ratio Mannose Electrolytic water [7]: 9.3%

Structure (SMILES): NC([CH2][Ge](=[O])[O][Ge](=[O])[CH2]C(N)C(=O)O)C(=O)O (centres unmarked) [Compound 18]
- Isomerization ratio (%) ([8]; Run 1 (Ge), glucose concentration 14%, pH of reaction mixture 7.17, electrolytic water, 80° C., 1-3 hours): 48.0%
- Isomerization ratio (%) ([8]; Run 3 (Ge), glucose concentration 7%, pH of reaction mixture 7.52, electrolytic water, 80° C., 1-3 hours): 73.1%
- Isomerization ratio (%) ([8]; Run 5 (Ge), glucose concentration 14%, pH of reaction mixture 7.81, electrolytic water, 80° C., 1-3 hours): 65.0%
- Isomerization ratio (%) ([8]; Run 7 (Ge), glucose concentration 7%, pH of reaction mixture 8.15, electrolytic water, 80° C., 1-3 hours): 94.7%
- Isomerization ratio (%) ([8]; Run 9 (Na, Ge), sodium hydroxide, glucose concentration 14%, pH of reaction mixture 8.61, 80° C.): 98.9%
- isomerization ratio in equilibrium (glucose isomerase): 80%

Structure (SMILES): O=C(O)C[CH](c1ccccc1)[Ge](=[O])[O][Ge](=[O])[CH](CC(=O)O)c1ccccc1 (centres unmarked) [Compound 6]
- Isomerization ratio Glucose NaOH [1]: 94.8%
- Isomerization ratio Glucose Electrolytic water [1]: 83.8%
- Isomerization ratio Ribose NaOH [2]: 40.1%
- Isomerization ratio Ribose Electrolytic water [2]: 11.3%
- Isomerization ratio Arabinose NaOH [3]: 24.4%
- Isomerization ratio Arabinose Electrolytic water [3]: 13.4%
- Isomerization ratio Xylose NaOH [4]: 33.2%
- Isomerization ratio Xylose Electrolytic water [4]: 8.3%
- Isomerization ratio Maltose NaOH [5]: 69.3%
- Isomerization ratio Maltose Electrolytic water [5]: 20.0%
- Isomerization ratio Lactose NaOH [6]: 73.6%
- Isomerization ratio Lactose Electrolytic water [6]: 15.5%
- Isomerization ratio Mannose NaOH [7]: 22.8%
- Isomerization ratio Mannose Electrolytic water [7]: 16.4%

Structure (SMILES): CC(C(=O)O)[CH](C)[Ge](=[O])[O][Ge](=[O])[CH](C)C(C)C(=O)O (centres unmarked) [Compound 4]
- Isomerization ratio Glucose NaOH [1]: 96.4%
- Isomerization ratio Glucose Electrolytic water [1]: 77.6%
- Isomerization ratio Ribose NaOH [2]: 36.3%
- Isomerization ratio Ribose Electrolytic water [2]: 10.3%
- Isomerization ratio Arabinose NaOH [3]: 14.3%
- Isomerization ratio Arabinose Electrolytic water [3]: 7.0%
- Isomerization ratio Xylose NaOH [4]: 22.3%
- Isomerization ratio Xylose Electrolytic water [4]: 7.0%
- Isomerization ratio Maltose NaOH [5]: 46.5%
- Isomerization ratio Maltose Electrolytic water [5]: 36.2%
- Isomerization ratio Lactose NaOH [6]: 66.4%
- Isomerization ratio Lactose Electrolytic water [6]: 17.7%
- Isomerization ratio Mannose NaOH [7]: 22.4%
- Isomerization ratio Mannose Electrolytic water [7]: 10.6%

Source: US5679787A, “Process for isomerization of compound of aldose structure into compound of ketose structure, and isomerization agent or accelerator used therein” (priority 1992, dated 1997)
